Experimental data from patent publication US9907759B2, “Sildenafil-free base-containing film preparation and method for producing same” (CTC Bio, Inc., priority 2011, dated 2018).
Structures can show the parent of a compound that is named as a salt.

Tests used:
Type in all cases: physicochemical
Solubility in water = test: Solubility in water
[1] = Particle size of sildenafil free base, Mastersizer 2000 (Malvern), wet method
Procedure: (§1) A preparative experimentation was conducted to analyze the particle size of a sildenafil free base and the characteristics thereof in several film preparations depending on the rpm conditions (3,000 or 5,000 rpm) of a homogenizer (AGI homomixer) and homogenization times (0, 10 and 30 minutes), the film preparations having the same compositions as the Examples shown in Table 6.
First, the raw materials of a sildenafil free base before homogenization were measured for their particle size using Mastersizer 2000 (Malvern) by a wet method, and the results thereof are shown in Table 1. The same procedure was repeated three times.
The particle size changes of a sildenafil free base depending on homogenization times were measured under the condition of a larger scale than the previous experimentation. The homogenization was carried out using a homogenizer (IKA) at 5,000 rpm with increasing homogenization time. The sildenafil free base-containing film preparations used in the homogenization had the same compositions as the Examples shown in Table 6.
(§2) In order to prepare films containing sildenafil free base particles having a smaller size, the film preparation having the same compositions as the Example 8 shown in Table 6 were subject to homogenization using a homogenizer (IKA) at 10,000 rpm for 1 hour.

[2] = Visual characteristics of the film prepared (particles, transparency)
Procedure: as §1, §2

[3] = after homogenization 3000 rpm, 30 minutes
[4] = after homogenization 5000 rpm, 10 minutes
[5] = sildenafil free base raw material before homogenization (Initial)

Row | SMILES | Solubility in water (Solubility in water) | Particle size D10 [1, 3] | Particle size D90 [1, 3] | Particle size D10 [1, 4] | Particle size D90 [1, 4] | D10 [1, 5] | D90 [1, 5] | Characteristics ([2]; 3000 rpm, 30 minutes) | Characteristics ([2]; 5000 rpm, 10 minutes)
1 | CCCc1nn(C)c2c(=O)[nH]c(-c3cc(S(=O)(=O)N4CCN(C)CC4)ccc3OCC)nc12 [sildenafil citrate] | can dissolve in water |  |  |  |  |  |  |  | 
2 | CCCc1nn(C)c2c(=O)[nH]c(-c3cc(S(=O)(=O)N4CCN(C)CC4)ccc3OCC)nc12 [sildenafil free base] | practically insoluble in water | 8.91 μm | 109.66 μm | 8.59 μm | 85.99 μm | 13.48 μm | 281.74 μm | Particles were visually observed | Particles were scarcely observed
